Values of other authors, collected in patent US20110047631A1, “HEAT SHOCK PROTEIN DEFICIENCIES AS MODEL SYSTEMS FOR BRAIN PATHOLOGY AND CANCER” (Medical College of Georgia Research Institute Inc., priority 2009, published 2011).

Columns and labels:
[1] = tested on: mouse models of Amyotrophic Lateral Sclerosis (ALS)
[2] = 8 mg/kg per mice daily dose

Structure (SMILES): CC1=C(O)C(=O)C=C2C1=CC=C1[C@@]2(C)CC[C@@]2(C)[C@@H]3C[C@](C)(C(=O)O)CC[C@]3(C)CC[C@]12C [Celasterol]
- neuronal cell death and life span [1]: block neuronal cell death and extend the life of these mice
- toxicity [2]: no toxicity
- expression of Hsps (Hsps): enhance the expression of Hsps
